From patent US20070078262A1, “Thiomorpholino steroid compounds, the use thereof for the preparation of meiosis-regulating medicaments and method for the preparation thereof” (SCHERING AKTIENGESELLSCHAFT, priority 2003, published 2007)

Tested on: mouse oocytes
Assay: In vitro fertilization (IVF) after in vitro maturation of oocytes
Assay type: cell-based, mice (C57BL/6J×DBA/2J F1)
Protocol: Changes in the subsequent IVF are therefore probably due to effects of the test compounds on cytoplasmic maturation.
Immature female mice (C57BL/6J×DBA/2J F1) in the age of 21-24 days were used as oocyte donors. Animals were given an i.p. injection of 10 IU pregnant mare serum gonadotropin (PMSG) to induce follicular growth. Animals were killed by cervical dislocation 48 hours later and the ovaries were dissected out. As sperm donors eight week old male mice (C57BL/6J×DBA/2J F1) were used.
Oocytes were isolated from the ovaries by manual rupture of the follicles using a pair of 27-gauge needles. Spherical naked oocytes (NkO) and CEOs displaying an intact GV were selected and placed in α-minimum essential medium (α-MEM without ribonucleosides, Gibco BRL, Gaithersburg; Cat. No. 22561) supplemented with 8 mg/ml human serum albumin (HSA), 0.23 mM pyruvate, 2 mM glutamine, 100 IU/ml penicillin and 100 μg/ml streptomycin.
The oocytes were rinsed three times in culture medium without oil overlay in 4-well multidishes containing 0.4 ml of the respective oocyte culture medium.
The oocyte culture medium was supplemented with 6.4% Fetal Bovine Serum (FBS). Solutions of novel compound IA and of the two compounds in comparison as mentioned were prepared from a stock solution containing 1 mg/ml of compound dissolved in absolute ethanol. The control group was cultured with a corresponding amount of ethanol.
After a culture time of 18-19 hours oocytes were further processed for in vitro fertilization. […] Oocytes were briefly washed without any test compound and subsequently transferred to the insemination dishes prepared in advance, which contained approximately 600.000 capacitated sperm cells per 500 μl IVF medium (obtained from the epididymides of male mice). The dishes were then incubated under defined gas conditions (5% CO2 in air) at 37° C. in a modified α-MEM IVF medium supplemented with 8 mg/ml HSA, 0.23 mM pyruvate, 100 IU penicillin/ml and 100 μg streptomycin/ml as described above for oocyte maturation.
Examination of the oocytes was carried out 22-24 hours after insemination in order to check fertilization and to record the number of pronucleus (PN) and 2-cell stage embryos. The fertilization rate was determined as the number of oocytes that had reached the PN or 2-cell embryo stage, relative to the total number inseminated.

For C[C@H](CN1CCSCC1)[C@H]1CC=C2C3=C(CC[C@@]21C)[C@@]1(C)CC[C@H](O)C(C)(C)[C@@H]1CC3 [Compound IA, (20S)-20-[(thiomorpholin-4-yl)methyl]-4,4-dimethyl-5α-pregna-8,14-dien-3β-ol], the “effect on 2-cell and blastocyst rate” value (already at 0.1 μM, tends to be even higher at 1 μM) was “beneficial effect” and the “fertilization rates of mouse oocytes compared to vehicle control (FIG. 3)” value (in vitro maturation without hypoxanthine, then IVF, n=18) was “higher fertilization rates”.
